Laboratory results as given in PMC8039949, “A novel small-molecule PROTAC selectively promotes tau clearance to improve cognitive functions in Alzheimer-like models” (Theranostics, 2021).
Where two headings read alike, the source gives them in different places.

Tests used:
[1] = tested on: hTau transgenic mice; assay: Multiple-doses subcutaneous administration in hTau transgenic mice, behavior and dendritic morphology; assay type: in vivo, mouse; conditions: 12 m-old hTau transgenic mice, subcutaneous 3 mg/kg once every 6 days, 5 times
Procedure: The Open field (OF) test was consisted of a 5 min session in a quadrate chamber (white opaque plastic). The chamber was divided into 16 square regions, a central field (center 4 square regions) and a periphery field. Each mouse was placed in the same position at the start of the test. Behaviors were recorded and analyzed by the video tracking system (Chengdu Taimeng Software Co., Ltd, China).
For novel object recognition (NOR) test, the mice were habituated to a quadrate chamber (white opaque plastic) for 5 min without objects 24 h prior to the test. The chamber was cleaned with 75% ethanol between each habituation period. The day after the mice re-entered the chamber from the same starting point and were given 10 min to familiarize themselves with the object A and object B. After each period the chamber and objects were cleaned with 75% ethanol. The next day after the familiarization period, object B was replaced with noval object C, and the mice were given 10 min to explore both objects. The exploring time in object A (TA) and C (TC) was recorded using the video tracking system. The discrimination index was calculated by (TC-TA)/(TA+TC).
The Elevated plus maze (EPM) test was performed as follows: mice were placed at the junction of the four arms of the maze (white opaque plastic), and started the test from facing an open arm. The chambers were cleaned with 75% ethanol before the next mouse was trained. The entries and duration time in each arm were recorded for 5 min by the video tracking system (Chengdu Taimeng Software Co., Ltd, China). An increase in open arm activity (duration and/or entries) reflects anti-anxiety behavior.
The Morris water maze (MWM) test was conducted to assess the spatial learning and memory. The maze was filled with water and divided into 4 quadrants with a platform placed in one quadrant. The mice were trained to find the hidden platform for 6 consecutive days, and underwent […] training trials (once per quadrant) per day from 14:00 to 20:00 pm. In each training trial, the mouse started from one of four quadrants facing the wall of the pool and the trial ended when the animal climbed on the platform. […] The spatial memory was tested 1 d after the last training by removed the platform. The longer a mouse stayed in the previous platform-located quadrant, the better it scored the spatial memory. A video camera, fixed to the ceiling 1.5 m from the water surface, was used to record the swimming path and the time for mice to find the platform (latency) or to pass through the previous platform-located quadrant each day. The camera was connected to a digital-tracking device attached to an IBM computer (Armonk, NY).
For fear conditioning (FC) test, the mice were placed into a square chamber with a grid floor. On the first day (day 1), each mouse was habituated to the chamber for 3 min, and then a foot shock (0.9 mA, 3 s) was delivered. Three sequential foot shocks at 3 min intervals were applied. Then the mice were returned to their home cages. On the next day (day 2), the mice were exposed to the same chamber without any stimulus for 3 min. The contextual conditioning was assessed by recording freezing behavior during the 3 min exposure. Freezing time during the 3 min was recorded for assessment of memory.
Golgi staining was performed by using a Rapid GolgiStain Kit (FD neurotechnologies, PK401) according to the manufacturer's instructions. Briefly, the animals were sacrificed and perfused for 5 min with PBS. All procedures were performed under dark condition. Brains were dissected out and immersed in impregnation solution (equal volumes of Solutions A and B, containing mercuric chloride, potassium dichromate, and potassium chromate, mixed for 24 h in advance), and stored at room temperature. Impregnation solution was replaced after 24 h. After 4 weeks, brains were transferred to Solution C and stored at 4 °C for 72 h, with the solution replaced after 24 h. […]

[2] = Pharmacokinetics study, plasma and brain concentration by LC-MS/MS; assay type: in vivo; conditions: male, mouse, sc, C57BL/6 mice, subcutaneous 3 mg/kg
Procedure: Male C57BL/6 mice (age of 6-8 weeks with bodyweight 21-23 g; N = 24) were purchased from JH Laboratory Animal Co. LTD. Subcutaneous injection dosing solution was prepared by diluting C004019 stock solution in 20% HP-β-CD in saline. The animals were administrated with C004019 at a dose of 3 mg/kg (10 mL/kg) via subcutaneous injection (N = 3 per timepoint), and then were anaesthetized via isoflurane at the designated time points, followed by collection of approximately 110 µL of blood sample into EDTA-2K tubes via retro-orbital puncture or cardiac puncture for terminal bleeding. The brain samples were collected at the designated time points after blood collection. All the samples were first maintained in wet ice and then the blood samples were centrifuged (2000 g, 4 °C, 5 min) to obtain plasma within 15 minutes post sampling. Afterwards, all the plasma samples and brain samples were stored at approximately -70 °C until analysis. The concentration of C004019 in plasma and brain was determined using liquid chromatograph mass spectrometry/mass spectrometry (LC-MS/MS) with a UPLC/MS-MS-015 (QTRAP 5500).

duration time in the open arm, elevated plus maze (EPM) [1]: no significant changes were detected
free movement in open field (OF) test [1]: no significant changes were detected
brain-to-plasma Cmax ratio ([2]; brain/plasma, read-out: ratio of brain tissue maximal concentration to the plasma maximal concentration (Kpuu value)): 0.00866
AUC(0-inf) ([2]; brain, read-out: AUCINF in brain): 12.6 ng·h/mL
AUC(0-t) ([2]; brain, read-out: AUClast in brain): 8.42 ng·h/mL
Cmax ([2]; brain, read-out: Cmax in brain (maximal brain concentration)): 10.8 ng/mL
MRT inf ([2]; brain, read-out: MRTINF in brain): 1.8 h
half-life ([2]; brain, read-out: T1/2 in brain (converted)): 1.29 h
Tmax ([2]; brain, read-out: Tmax in brain): 0.167 h
AUC(0-inf) ([2]; plasma, read-out: AUCINF in plasma): 1800 ng·h/mL
AUC(0-t) ([2]; plasma, read-out: AUClast in plasma): 1190 ng·h/mL
Cmax ([2]; plasma, read-out: Cmax in plasma): 1250 ng/mL
MRT inf ([2]; plasma, read-out: MRTINF in plasma): 1.87 h
half-life ([2]; plasma, read-out: T1/2 in plasma (converted)): 1.33 h
Tmax ([2]; plasma, read-out: Tmax in plasma): 0.167 h
SMILES: CC(=O)N1CCCN(c2nc(NCCc3cccs3)nc(N(C)CC(=O)NCCOCCOCCOCC(=O)N[C@H](C(=O)N3C[C@H](O)C[C@H]3C(=O)NCc3ccc(-c4scnc4C)cc3)C(C)(C)C)n2)CC1 [C004019]
fear condition (FC) test, freezing index [1]: improved freezing index
novel object recognition (NOR) test [1]: increased time exploring new object
neurite arborization and spine density in hippocampal DG ([1]; Golgi-cox staining and Sholl analysis): significantly increased
Morris water maze (MWM) test, latency ([1]; learning trial and probe trial): decreased latency to find the platform
